The text below walks through data of US12636297B2, “Boronic acid derivatives and therapeutic uses thereof” (priority 2019, dated 2026).

In general, MIC50 refers to an inhibitory concentration at the 50% level, which refers to growth in some studies and to a panel of isolates in others. Usually MIC90 stands for an inhibitory concentration at the 90% level, which refers to growth in some studies and to a panel of isolates in others.

Like-named read-outs stand apart in the source and are kept apart here.

The test system of one test is P. aeruginosa. Put plainly: Susceptibility testing of 262 P. aeruginosa strains with meropenem MIC >2 μg/mL. The settings on record: Compound 1 at 8 μg/mL; for % of susceptible organisms at breakpoints: breakpoints ≤8 μg/mL meropenem and cefepime, ≤4 μg/mL ceftolozane, ≤16 μg/mL piperacillin. In kind it is cell-based, Pseudomonas aeruginosa. How it is done: (§1) In addition, 509 Carbapenem-Resistant Enterobacteriaceae were tested with meropenem, cefepime, and ceftolozane alone and in combination with Compound 1 at 8 μg/mL. Furthermore, 262 strains of P. aeruginosa with a meropenem MIC>2 μg/mL were tested with meropenem, ceftolozane, cefepime and piperacillin alone and in combination with Compound 1 at 8 μg/mL.
262 strains of P. aeruginosa having a meropenem MIC greater than 2 μg/mL were tested with meropenem, ceftolozane, cefepime and piperacillin alone and Compound 1 at 8 μg/mL.

In test [1] the test system is Carbapenem-Resistant Enterobacteriaceae. Put plainly: MIC distribution for 509 Carbapenem-Resistant Enterobacteriaceae (FIG. 2). In kind it is cell-based. The settings on record: Compound 1 at 8 μg/mL. How it is done: as §1
The MIC distribution of combinations of Compound 1 with meropenem, cefepime and cetolozane alone, or with Compound 1 at 8 μg/mL for Carbapenem-Resistant Enterobacteriaceae were tested.

In test [2] the test system is carbapenem resistant Enterobacteriaceae (CRE). Put plainly: MIC of antibiotics with Compound 1 against panel of 510 CRE clinical isolates. The settings on record: for MIC50 / MIC90: antibiotic alone. The test is classed as cell-based. How it is done: In this example, the antibiotics meropenem, cefepime, ceftolozane and cefiderocol, were tested in combination with Compound 1 at 4 μg/ml and 8 μg/ml against a panel of 510 clinical isolates representing various types of carbapenem resistant Enterobacteriaceae (CRE). Cefiderocol was tested at standard conditions, in […] media.

Test [3] concerns carbapenem resistant Acinetobacter baumannii. The experiment in a line: MIC of antibiotics with Compound 1 against panel of 503 carbapenem resistant Acinetobacter baumannii clinical isolates. In kind it is cell-based. The settings on record: for MIC50 / MIC90: carbapenem resistant Acinetobacter baumannii (N = 503), antibiotic alone. As to the method:
In another experiment, various antibiotics, meropenem, cefepime, ceftolozane and cefiderocol, were tested in combination with Compound 1 at 4 μg/ml and 8 μg/ml against the panel of 503 clinical isolates of carbapenem resistant Acinetobacter baumannii. […] Cefiderocol was tested at standard conditions, in […] media.

For test [4], the system named is carbapenem-resistant (CR) Acinetobacter baumannii (AB). Put plainly: Broth microdilution MIC of β-lactams alone and with Compound 1 against carbapenem-resistant Acinetobacter baumannii clinical isolates. The settings on record: for MIC: SUL alone; for % susceptible, [S]: breakpoints MER ≤8 μg/mL, TOL ≤4 μg/mL. In kind it is cell-based. As to the method: (§2) In this example the in vitro activity of Compound 1 was evaluated in combination with several β-lactams including sulbactam, meropenem, and ceftolozane against clinical isolates of carbapenem-resistant (CR) Acinetobacter baumannii (AB) and Pseudomonas aeruginosa (PA).
A general note: In broth dilution the organism is exposed to a series of concentrations in liquid medium.

The test system of test [5] is Pseudomonas aeruginosa (PA). The experiment in a line: Broth microdilution MIC of β-lactams alone and with Compound 1 against Pseudomonas aeruginosa clinical isolates (representative and challenge panels). The test is classed as cell-based. The settings on record: for Minimum Inhibitory Concentration Distribution, % of isolates: representative panel of PA (N = 500), without Compound 1, AVI and TAZ at 4 μg/mL; for % susceptible, [S] / MIC50 / MIC90: Compound 1, AVI, and TAZ at fixed 4 μg/mL; for % susceptible, [S]: breakpoints MER ≤8, TOL ≤4, CAZ ≤8 μg/mL; for MIC50 / MIC90: Pseudomonas aeruginosa. As to the method:
as §2

[6] abbreviates: non-carbapenemase producing CRE, N = 45.
Where [7] appears, read: CRAB (300), Compound 1 at fixed 4 μg/mL.

As for `O=C(O)c1c(F)ccc2c1OB(O)[C@@H]1C[C@H]21` [Compound 1, 5-Fluoro-2-hydroxy-1a,7b-dihydro-1H-cyclopropa[c][1,2]benzoxaborinine-4-carboxylic acid], the “Effect on proportion of susceptible P. aeruginosa” value in the test with P. aeruginosa (262 strains with meropenem MIC >2 μg/mL) was “increased the proportion of susceptible organisms for all tested agents”. In addition, the “Effect on potency of meropenem, cefepime and ceftolozane (MIC distribution, FIG. 2)” value in test [1] was “significantly increased potency of all tested antibiotics”. Besides, the “Effect on MIC90 of antibiotics” value in test [2] (Compound 1 at 4 and 8 μg/ml, 510 CRE clinical isolates) is on record as “shifted MIC90 of all antibiotics (except ceftolozane tested against metallo beta-lactamases, MBL) into susceptible range”. Further, in test [3] (Compound 1 at 4 and 8 μg/ml, 503 carbapenem resistant A. baumannii isolates), the “Effect on potency of antibiotics” value was “significantly enhances the potency of meropenem and cefiderocol”.
`CC(C)(O/N=C(\C(=O)N[C@@H]1C(=O)N2C(C(=O)[O-])=C(C[N+]3(CCNC(=O)c4ccc(O)c(O)c4Cl)CCCC3)CS[C@H]12)c1csc(N)n1)C(=O)O` [DER, cefiderocol]: the MIC50 in test [2] (CRE KPC, N = 168) came out at 2 µg/mL; in test [2] (CRE MBL, N = 145) it was 8 µg/mL; in test [2] (CRE OXA, N = 152), 1 µg/mL; in test [2] (setting [6]), 2 µg/mL; in test [3], 1 µg/mL. Also, the MIC90 in test [2] (CRE KPC, N = 168) is 32 µg/mL; in test [2] (CRE MBL, N = 145), above 32 µg/mL; in test [2] (CRE OXA, N = 152) it was 8 µg/mL; in test [2] (setting [6]) it was 32 µg/mL; in test [3], 32 µg/mL.
As for `CO/N=C(\C(=O)N[C@@H]1C(=O)N2C(C(=O)[O-])=C(C[N+]3(C)CCCC3)CS[C@H]12)c1csc(N)n1` [FEP, cefepime], the “% of susceptible organisms at breakpoints” value in the test on P. aeruginosa (All strains (N = 262), meropenem MIC >2 μg/mL) amounted to 20%; with P. aeruginosa (MBL (N = 56)) it was 4%; in the test with P. aeruginosa (No MBL (N = 206)), 24%. For the same compound, the MIC50 in test [2] (CRE KPC, N = 168) was 32 µg/mL; in test [2] (CRE MBL, N = 145) it was above 32 µg/mL; in test [2] (CRE OXA, N = 152) it was above 32 µg/mL; in test [2] (setting [6]), above 32 µg/mL; in test [3] it was above 32 µg/mL. Further, the MIC90 is above 32 µg/mL in test [2] (CRE KPC, N = 168); above 32 µg/mL in test [2] (CRE MBL, N = 145); above 32 µg/mL in test [2] (CRE OXA, N = 152); above 32 µg/mL in test [2] (setting [6]); above 32 µg/mL in test [3].
As for `CC1(C)[C@H](C(=O)O)N2C(=O)C[C@H]2S1(=O)=O` [SUL, sulbactam], in test [4] (Acinetobacter baumannii), the MIC50 is above 32 µg/mL. Moreover, the MIC90 in test [4] (Acinetobacter baumannii) was above 32 µg/mL. Moreover, the MIC is above 64 µg/mL in test [4] (Acinetobacter baumannii, read-out: Minimum Inhibitory Concentration, AB1144 (NDM-1)); 32 µg/mL in test [4] (Acinetobacter baumannii, read-out: Minimum Inhibitory Concentration, AB1192 (OXA-24, OXA-72)); 4 µg/mL in test [4] (Acinetobacter baumannii, read-out: Minimum Inhibitory Concentration, AB1223 (OXA-72)); 64 µg/mL in test [4] (Acinetobacter baumannii, read-out: Minimum Inhibitory Concentration, AB1227 (OXA-23)); 64 µg/mL in test [4] (Acinetobacter baumannii, read-out: Minimum Inhibitory Concentration, AB1244 (OXA-23)); above 64 µg/mL in test [4] (Acinetobacter baumannii, read-out: Minimum Inhibitory Concentration, AB1291 (KPC-2)). The MIC is 32 µg/mL in test [4] (Acinetobacter baumannii, read-out: Minimum Inhibitory Concentration, AB1307 (OXA-23)); 16 µg/mL in test [4] (Acinetobacter baumannii, read-out: Minimum Inhibitory Concentration, AB1333 (OXA-239)); above 64 µg/mL in test [4] (Acinetobacter baumannii, read-out: Minimum Inhibitory Concentration, AB1358 (NDM-1)); above 64 µg/mL in test [4] (Acinetobacter baumannii, read-out: Minimum Inhibitory Concentration, AB1359 (NDM-1)).
`Cn1c(N)c(NC(=O)NCCN)c[n+]1CC1=C(C(=O)O)N2C(=O)[C@@H](NC(=O)/C(=N\OC(C)(C)C(=O)[O-])c3nsc(N)n3)[C@H]2SC1` [TOL, ceftolozane]: the “% susceptible, [S]” value in test [4] (AB CP (100), defined carbapenemases, Compound 1 at fixed 4 μg/mL) is reported as “(0.0) %”; in test [4] (setting [7]), “(1.3) %”; in test [5] (PA (CAZ-AVI MIC >8) (37)) it was “(18.2) %”; in test [5] (PA (Challenge, 652)), “(44.0) %”; in test [5] (PA (MER MIC >2) (612)), “(56.2) %”; in test [5] (PA (Representative, 500)), “(90.4) %”. In addition, the “% susceptible, [S]” value in test [5] (PA (TOL-TAZ MIC >4) (39)) was “(3.3) %”. The MIC50 was above 32 µg/mL in test [4] (Acinetobacter baumannii, AB CP (100), defined carbapenemases, Compound 1 at fixed 4 μg/mL, read-out: MIC50); >32/>32 μg/mL in test [4] (setting [7]); above 32 µg/mL in test [5] (PA (CAZ-AVI MIC >8) (37)); 16 µg/mL in test [5] (PA (Challenge, 652)); 4 µg/mL in test [5] (PA (MER MIC >2) (612)); 0.5 µg/mL in test [5] (PA (Representative, 500)). Moreover, the MIC50 in test [5] (PA (TOL-TAZ MIC >4) (39)) was above 32 µg/mL; in test [2] (CRE KPC, N = 168), above 32 µg/mL; in test [2] (CRE MBL, N = 145), above 32 µg/mL; in test [2] (CRE OXA, N = 152) it was above 32 µg/mL; in test [2] (setting [6]), above 32 µg/mL; in test [3], above 32 µg/mL. Further, the MIC90 was above 32 µg/mL in test [4] (Acinetobacter baumannii, AB CP (100), defined carbapenemases, Compound 1 at fixed 4 μg/mL, read-out: MIC90); >32/>32 μg/mL in test [4] (setting [7]); above 32 µg/mL in test [5] (PA (CAZ-AVI MIC >8) (37)); above 32 µg/mL in test [5] (PA (Challenge, 652)); above 32 µg/mL in test [5] (PA (MER MIC >2) (612)); 4 µg/mL in test [5] (PA (Representative, 500)). Also, the MIC90 is above 32 µg/mL in test [5] (PA (TOL-TAZ MIC >4) (39)); above 32 µg/mL in test [2] (CRE KPC, N = 168); above 32 µg/mL in test [2] (CRE MBL, N = 145); above 32 µg/mL in test [2] (CRE OXA, N = 152); above 32 µg/mL in test [2] (setting [6]); above 32 µg/mL in test [3]. Also, the “Minimum Inhibitory Concentration Distribution, % of isolates” value in test [5] (MIC 0.125 μg/mL) is 0.2%; in test [5] (MIC 0.25 μg/mL) it was 2.8%; in test [5] (MIC 0.5 μg/mL), 56.2%; in test [5] (MIC 1 μg/mL) it was 77.4%; in test [5] (MIC 2 μg/mL), 85.2%; in test [5] (MIC 4 μg/mL), 90.4%. The “Minimum Inhibitory Concentration Distribution, % of isolates” value came out at 92.2% in test [5] (MIC 8 μg/mL); 93.0% in test [5] (MIC 16 μg/mL); 93.2% in test [5] (MIC 32 μg/mL); 100.0% in test [5] (MIC >32 μg/mL); 0.2% in test [5] (MIC ≤0.06 μg/mL).
